Assay results: ChEMBL document CHEMBL5543114, “Chimeric NOD2 Mincle Agonists as Vaccine Adjuvants” (J Med Chem, 2024)
Active and inactive are the calls of the source. The calls are words filed in the database; no cut-off is given here.

Columns and labels:
BMDM [1] = assay: Induction of IL-1beta production in C57BL/6 mouse BMDM cells at 2 ug/ml incubated for 48 hrs in presence of 1 nmol [(2R,3S,4S,5R,6R)-3,4,5-trihydroxy-6-[(3R,4S,5S,6R)-3,4,5-trihydroxy-6-[(4-octadecoxybenzoyl)oxymethyl]tetrahydropyran-2-yl]oxy-tetrahydropyran-2-yl]methyl 4-octadecoxybenzoate by ELISA; format: functional, cell-based; details: dose 2.0 µg/ml
BMDM [2] = assay: Induction of IL-23 production in C57BL/6 mouse BMDM cells at 2 ug/ml incubated for 48 hrs in presence of 1 nmol [(2R,3S,4S,5R,6R)-3,4,5-trihydroxy-6-[(3R,4S,5S,6R)-3,4,5-trihydroxy-6-[(4-octadecoxybenzoyl)oxymethyl]tetrahydropyran-2-yl]oxy-tetrahydropyran-2-yl]methyl 4-octadecoxybenzoate by ELISA; format: functional, cell-based; details: dose 2.0 µg/ml
HEK293 [3] = assay: Induction of IL-8 production in HEK293 cells expressing mouse NOD2 at 10 to 100 uM incubated for 20 hrs in presence of 5 to 50 uM [(2R,3S,4S,5R,6R)-3,4,5-trihydroxy-6-[(3R,4S,5S,6R)-3,4,5-trihydroxy-6-[(4-octadecoxybenzoyl)oxymethyl]tetrahydropyran-2-yl]oxy-tetrahydropyran-2-yl]methyl 4-octadecoxybenzoate by ELISA; format: functional, cell-based; details: Homo sapiens, dose 10-100 µM
HEK293 [4] = assay: Induction of IL-8 production in HEK293 cells expressing mouse NOD2 at 10 to 100 uM incubated for 20 hrs in presence of 5 to 50 uM 6,6'-Di-0-(2,4-bis(octadecyloxy)benzoyl)-alpha,alpha'-D-trehalose by ELISA; format: functional, cell-based; details: Homo sapiens, dose 10-100 µM
Splenocyte [5] = assay: Improvement in memory response in ovalbumin immunized C57BL/6 mouse splenocytes assessed as increase in IFNgamma level incubated for 72 hrs in presence of 6,6'-Di-0-(2,4-bis(octadecyloxy)benzoyl)-alpha,alpha'-D-trehalose by ELISA; format: functional, cell-based
Splenocyte [6] = assay: Improvement in memory response in ovalbumin immunized C57BL/6 mouse splenocytes assessed as increase in IFNgamma level incubated for 72 hrs in presence of [(2R,3S,4S,5R,6R)-3,4,5-trihydroxy-6-[(3R,4S,5S,6R)-3,4,5-trihydroxy-6-[(4-octadecoxybenzoyl)oxymethyl]tetrahydropyran-2-yl]oxy-tetrahydropyran-2-yl]methyl 4-octadecoxybenzoate by ELISA; format: functional, cell-based
Mus musculus = species: Mus musculus; assay: Adjuvanticity in ovalbumin immunized C57BL/6 mouse assessed as increase in anti-OVA IgG titers boosted with OVA at 1 week and measured after week 3, 4, 5 and 6 in presence of 6,6'-Di-0-(2,4-bis(octadecyloxy)benzoyl)-alpha,alpha'-D-trehalose by ELISA; format: functional, organism-based; details: time 6.0 weeks
[7] = Toxicity in ovalbumin immunized C57BL/6 mouse assessed as reactogenicity boosted with OVA at 1 week and measured after week 3, 4, 5 and 6 in presence of 6,6'-Di-0-(2,4-bis(octadecyloxy)benzoyl)-alpha,alpha'-D-trehalose; details: in vivo, 1008 h, time 6 weeks
HEK293 [8] = assay: Induction of IL-8 production in HEK293 cells expressing mouse NOD2 at 5 to 50 uM incubated for 20 hrs by ELISA; format: functional, cell-based; details: Homo sapiens, dose 5-50 µM
BMDM [9] = assay: Induction of IL-23 production in C57BL/6 mouse BMDM cells at 2.5 ug/ml incubated for 48 hrs in presence of 1 nmol [(2R,3S,4S,5R,6R)-3,4,5-trihydroxy-6-[(3R,4S,5S,6R)-3,4,5-trihydroxy-6-[(4-octadecoxybenzoyl)oxymethyl]tetrahydropyran-2-yl]oxy-tetrahydropyran-2-yl]methyl 4-octadecoxybenzoate by ELISA; format: functional, cell-based; details: dose 2.5 µg/ml
BMDM [10] = assay: Induction of IL-1beta production in C57BL/6 mouse BMDM cells at 1 nmol per well incubated for 48 hrs in presence of 2 ug/ml (4R)-4-[[(2S)-2-[[(2R)-2-[(3R,4R,5S,6R)-3-acetamido-2,5-dihydroxy-6-(hydroxymethyl)tetrahydropyran-4-yl]oxypropanoyl]amino]propanoyl]amino]-5-amino-5-oxo-pentanoic acid by ELISA; format: functional, cell-based
BMDM [11] = assay: Induction of IL-23 production in C57BL/6 mouse BMDM cells at 1 nmol per well incubated for 48 hrs in presence of 2ug/ml (4R)-4-[[(2S)-2-[[(2R)-2-[(3R,4R,5S,6R)-3-acetamido-2,5-dihydroxy-6-(hydroxymethyl)tetrahydropyran-4-yl]oxypropanoyl]amino]propanoyl]amino]-5-amino-5-oxo-pentanoic acid by ELISA; format: functional, cell-based
BMDM [12] = assay: Induction of IL-23 production in C57BL/6 mouse BMDM cells at 1 nmol per well incubated for 48 hrs in presence of 2.5 ug/ml (2R,6S)-2-amino-6-[[(4R)-4-amino-4-carboxy-butanoyl]amino]heptanedioic acid by ELISA; format: functional, cell-based
BMDM [13] = assay: Induction of IL-23 production in C57BL/6 mouse BMDM cells at 1 nmol per well incubated for 48 hrs in presence of 2 ug/ml murabutide by ELISA; format: functional, cell-based
2B4 = assay: Induction of NFAT-GFP signal in mouse 2B4 reporter cells expressing mMincle + FcRgamma at 0.1 to 1 nmol incubated for 18 hrs by flow cytometry analysis; format: functional, cell-based; details: dose 0.1-1 nmol
HEK293 [14] = assay: Induction of IL-8 production in HEK293 cells expressing mouse NOD2 at 5 to 50 uM incubated for 20 hrs in presence of 10 to 100 uM (4R)-4-[[(2S)-2-[[(2R)-2-[(3R,4R,5S,6R)-3-acetamido-2,5-dihydroxy-6-(hydroxymethyl)tetrahydropyran-4-yl]oxypropanoyl]amino]propanoyl]amino]-5-amino-5-oxo-pentanoic acid by ELISA; format: functional, cell-based; details: Homo sapiens, dose 5-50 µM
Splenocyte [15] = assay: Improvement in memory response in ovalbumin immunized C57BL/6 mouse splenocytes assessed as increase in IFNgamma level incubated for 72 hrs in presence of (4R)-4-[[(2S)-2-[[(2R)-2-[(3R,4R,5S,6R)-3-acetamido-2,5-dihydroxy-6-(hydroxymethyl)tetrahydropyran-4-yl]oxypropanoyl]amino]propanoyl]amino]-5-amino-5-oxo-pentanoic acid by ELISA; format: functional, cell-based
BMDM [16] = assay: Induction of IL-1beta production in C57BL/6 mouse BMDM cells at 1 nmol per well incubated for 24 hrs by ELISA; format: functional, cell-based
BMDM [17] = assay: Induction of MIP-2 production in C57BL/6 mouse BMDM cells at 1 nmol per well incubated for 24 hrs by ELISA; format: functional, cell-based
BMDM [18] = assay: Induction of IL-6 production in C57BL/6 mouse BMDM cells at 1 nmol per well incubated for 24 hrs by ELISA; format: functional, cell-based

CC(=O)N[C@@H]1[C@@H](O[C@H](C)C(=O)N[C@@H](C)C(=O)N[C@H](CCC(=O)O)C(N)=O)[C@H](O)[C@@H](CO)O[C@H]1O [MURAMYL DIPEPTIDE]
Activity (BMDM [1]): Active | Activity (BMDM [2]): Active | Activity (HEK293 [3]): Active | Activity (HEK293 [4]): Active | Activity (Splenocyte [5]): inactive | Activity (Splenocyte [6]): Active | Activity (Mus musculus): Active | Activity [7]: Toxic

CCCCCCCCCCCCCCCCCCCCCC(=O)OC[C@@H]1O[C@H](O[C@H]2O[C@H](COC(=O)CCCCCCCCCCCCCCCCCCCCC)[C@@H](O)[C@H](O)[C@H]2O)[C@@H](O)[C@H](O)[C@H]1O
Activity (HEK293 [8]): inactive

N[C@H](CCC[C@H](NC(=O)CC[C@@H](N)C(=O)O)C(=O)O)C(=O)O
Activity (BMDM [9]): inactive

CCCCCCCCCCCCCCCCCCOc1ccc(C(=O)OC[C@H]2O[C@H](O[C@H]3O[C@H](COC(=O)c4ccc(OCCCCCCCCCCCCCCCCCC)cc4)[C@@H](O)[C@H](O)[C@H]3O)[C@H](O)[C@@H](O)[C@@H]2O)cc1
Activity (BMDM [10]): Active | Activity (BMDM [11]): Active | Activity (BMDM [12]): inactive | Activity (BMDM [13]): inactive | Activity (2B4): Active | Activity (HEK293 [8]): inactive | Activity (HEK293 [14]): Active | Activity (Splenocyte [15]): Active

CCCCCCCCCCCCCCCCCCOc1ccc(C(=O)OC[C@H]2O[C@H](O[C@H]3O[C@H](COC(=O)c4ccc(OCCCCCCCCCCCCCCCCCC)cc4OCc4cn(CCCN(OC)[C@@H]5O[C@H](CO)[C@@H](O)[C@H](O)[C@H]5NC(C)=O)nn4)[C@@H](O)[C@H](O)[C@H]3O)[C@H](O)[C@@H](O)[C@@H]2O)c(OCc2cn(CCCN(OC)[C@@H]3O[C@H](CO)[C@@H](O)[C@H](O)[C@H]3NC(C)=O)nn2)c1
Activity (BMDM [16]): inactive | Activity (BMDM [17]): inactive | Activity (BMDM [18]): inactive
